{"source": "patent US9738604B2", "about": "“Ethynylbenzene derivatives” (Duke University, priority 2010, dated 2017)", "key": {"[1]": {"system": "Acinetobacter Baumannii multidrug-resistant strain (MDR A.b. Isolate)", "experiment": "Disk diffusion assay, multidrug-resistant strain", "format": "cell-based", "set-up": "key to diameter of the growth inhibition, MDR A.b. Isolate: A: no detectable inhibition; B: 6-10 mm; C: 11-15 mm; D: ≧16", "conditions": "2 μg of compound per disc, disc 6 mm in diameter"}, "[2]": {"system": "Acinetobacter Baumannii antibiotic susceptible strain (Sus. A.b. Isolate)", "experiment": "Disk diffusion assay, antibiotic susceptible strain", "format": "cell-based", "set-up": "key to diameter of the growth inhibition, Sus. A.b. Isolate: A: no detectable inhibition; B: 6-10 mm; C: 11-15 mm; D: ≧16", "conditions": "2 μg of compound per disc, disc 6 mm in diameter"}, "[3]": {"system": "N. gonorrhoeae 35/02", "conditions": "resistance profile of strain 35/02; cited from earlier work"}}, "data": [{"compound": "CO/N=C(\\C(=O)N[C@@H]1C(=O)N2C(C(=O)O)=C(CSc3nc(=O)c(=O)[nH]n3C)CS[C@H]12)c1csc(N)n1", "note": "[ceftriaxone, reference compound]", "values": [{"measurement": "diameter of the growth inhibition, MDR A.b. Isolate", "setting": "[1]", "result": "A"}, {"measurement": "diameter of the growth inhibition, Sus. A.b. Isolate", "setting": "[2]", "result": "A"}, {"measurement": "MIC", "setting": "[3]", "result": 0.12, "unit": "µg/mL"}]}]}
